This note sets out measurements from patent US7091351B2, “Vanadium compounds for treating cancer” (Parker Hughes Institute, priority 1998, dated 2006).

Common to all, as to assay type: cell-based, human
Series [1] has as its system Ntera-2 testicular cancer cells. In words: Flow cytometric TUNEL apoptosis assay, NTERA-2 cells. Conditions: 24 h, TUNEL-positive nuclei. Summed up: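 Cells at 10^6/ml treated 24 h with 100 μM vanadocene in 0.1% DMSO. Ntera-2: two-color flow TUNEL, FITC-dUTP labeling of DNA breaks with PI counterstain, apoptotic fraction gated.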
For orientation: In flow cytometry, cells or beads pass a laser one at a time.

For series [2], the system named is Tera-2 testicular cancer cells. In words: Flow cytometric TUNEL apoptosis assay, TERA-2 cells. Conditions: 24 h, TUNEL-positive nuclei.
The subject of series [3] is 833-K testicular cancer cells. In words: Cytotoxic activity of oxovanadium(IV) compounds, 833-K. Conditions: read-out: Cytotoxic Activity 833-K. Summed up: (§1)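 4×10^4 cells/well; compound 0.1–250 μM, 48 h, 37° C, 5% CO2, triplicate. MTT 0.5 mg/ml final, 4 h; SDS/HCl solubilisation overnight; A540/690. IC50 by non-linear fit of % survival.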
In the next series the test system is U373 glioblastoma cells. In words: Cytotoxic activity of oxovanadium(IV) compounds, U373. Conditions: read-out: Cytotoxic Activity U373. Summed up: as §1
The next series deals with MOLT-3 cells. In words: MTT cytotoxicity assay of oxovanadium(IV) compounds, MOLT-3. The conditions noted are these: 48 hr. The essentials: as §1
On the technique in general: Formazan colour is commonly taken as a measure of viable cells.

A further series deals with NALM-6 cells. In words: In situ detection of apoptosis, confocal microscopy, NALM-6. Conditions: 48 hours after treatment. The procedure: Exponentially growing cells were seeded in 6-well tissue culture plates and incubated with fresh medium containing compounds. […] The cells were fixed in 2% paraformaldehyde, washed with PBS and pelleted by centrifuging the tubes at 1000 rpm for 5 min. Cells pellets were resuspended in 50 μl of PBS, transferred to superforst plus slides and allowed to attach for 15 min. The cells were permeabilized with 0.1% triton X-100 in 0.1% citrate buffer and incubated for 1 hr at 37° C. with the reaction mixture containing terminal deoxynucleotidyl transferase (TdT) and fluorescein isothiocyanate (FITC)-conjugated dUTP. Cells were washed with PBS to remove unbound reagents and the coverslips were mounted onto slides with Vectashield containing propidium iodide (Vector Labs, Burlingame, Calif.) and slides were viewed with a confocal laser scanning microscope. […] In control reactions, the TdT enzyme was omitted from the reaction mixture.

Series [4] deals with HS445 Hodgkin's lymphoma cells. In words: MTT cytotoxicity assay of oxovanadium(IV) compounds, HS445. Conditions: 48 hr. Summed up:
as §1

As to `[Cl-].[Cl-].[V+4].c1cc[cH-]c1.c1cc[cH-]c1` [VDC, VCp2Cl2], the “% Apoptosis at 100 μM NTERA-2” value in series [1] is given as 35 (34, 34) %. The “% Apoptosis at 100 μM TERA-2” value in series [2] was 88 (87, 89) %.
On to “bis(4,7-dimethyl-1,10-phenanthroline)sulfatooxovanadium(IV) [Compound 29]”, for which the IC50 was found to be 850 nM in series [3], 1800 nM in the series on U373 glioblastoma cells, 190 ± 10 nM with MOLT-3 cells and 500 ± 80 nM in series [4]. For the same compound, the “apoptotic nuclei (FITC-dUTP / propidium iodide), NALM-6” value in the series with NALM-6 cells was “many apoptotic yellow nuclei”.
